Structures are written as SMILES.

One data set can be described thus: Aqueous solubility assay. In kind it is physicochemical. Conditions: PBS pH 7.4, 4 h, room temperature; for Determined concentration Mean: mean of 3, maximal concentration evaluated 200, 500 or 1000 μM; for Determined concentration Rep 1: replicate 1; for Determined concentration Rep 2: replicate 2; for Determined concentration Rep 3: replicate 3. The protocol: Solutions were incubated for four hours at room temperature and stirred at 600 rpm and run in triplicate. Centrifugation was performed for 15 minutes at 6000 rpm and solution concentration was determined using HPLC-UV (photodiode array detector acquiring between 220 nm, and 300 nm wavelengths).

The next data set addresses T1, integrin α4β7 (Homo sapiens, UniProt P13612+P26010).
T1 sequence (P13612 34-977 limits assumed): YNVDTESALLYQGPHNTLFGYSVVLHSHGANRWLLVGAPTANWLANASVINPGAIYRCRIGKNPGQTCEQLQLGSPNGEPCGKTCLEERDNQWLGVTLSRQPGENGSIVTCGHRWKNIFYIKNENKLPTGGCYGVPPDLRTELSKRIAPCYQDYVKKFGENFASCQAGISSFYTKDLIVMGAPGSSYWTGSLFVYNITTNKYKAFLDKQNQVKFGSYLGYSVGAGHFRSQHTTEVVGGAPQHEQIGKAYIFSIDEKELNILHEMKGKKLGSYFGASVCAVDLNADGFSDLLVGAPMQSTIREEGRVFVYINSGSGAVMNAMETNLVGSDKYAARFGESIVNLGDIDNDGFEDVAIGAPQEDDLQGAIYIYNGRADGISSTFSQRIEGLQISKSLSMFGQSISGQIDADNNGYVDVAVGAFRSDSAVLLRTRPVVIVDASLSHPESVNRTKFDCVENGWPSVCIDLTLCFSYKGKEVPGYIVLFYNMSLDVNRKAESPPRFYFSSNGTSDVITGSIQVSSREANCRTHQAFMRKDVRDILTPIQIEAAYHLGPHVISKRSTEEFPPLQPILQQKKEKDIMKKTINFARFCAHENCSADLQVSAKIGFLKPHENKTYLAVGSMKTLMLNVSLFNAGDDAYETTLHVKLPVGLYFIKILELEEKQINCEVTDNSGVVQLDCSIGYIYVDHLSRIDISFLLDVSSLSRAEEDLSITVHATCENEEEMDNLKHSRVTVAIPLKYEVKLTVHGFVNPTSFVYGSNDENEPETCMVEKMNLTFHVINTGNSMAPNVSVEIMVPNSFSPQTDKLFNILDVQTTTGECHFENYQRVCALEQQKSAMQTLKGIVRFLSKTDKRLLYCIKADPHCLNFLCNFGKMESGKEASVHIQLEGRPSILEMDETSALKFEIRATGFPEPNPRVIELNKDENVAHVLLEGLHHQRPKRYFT
T1 sequence (P26010 20-723 limits assumed): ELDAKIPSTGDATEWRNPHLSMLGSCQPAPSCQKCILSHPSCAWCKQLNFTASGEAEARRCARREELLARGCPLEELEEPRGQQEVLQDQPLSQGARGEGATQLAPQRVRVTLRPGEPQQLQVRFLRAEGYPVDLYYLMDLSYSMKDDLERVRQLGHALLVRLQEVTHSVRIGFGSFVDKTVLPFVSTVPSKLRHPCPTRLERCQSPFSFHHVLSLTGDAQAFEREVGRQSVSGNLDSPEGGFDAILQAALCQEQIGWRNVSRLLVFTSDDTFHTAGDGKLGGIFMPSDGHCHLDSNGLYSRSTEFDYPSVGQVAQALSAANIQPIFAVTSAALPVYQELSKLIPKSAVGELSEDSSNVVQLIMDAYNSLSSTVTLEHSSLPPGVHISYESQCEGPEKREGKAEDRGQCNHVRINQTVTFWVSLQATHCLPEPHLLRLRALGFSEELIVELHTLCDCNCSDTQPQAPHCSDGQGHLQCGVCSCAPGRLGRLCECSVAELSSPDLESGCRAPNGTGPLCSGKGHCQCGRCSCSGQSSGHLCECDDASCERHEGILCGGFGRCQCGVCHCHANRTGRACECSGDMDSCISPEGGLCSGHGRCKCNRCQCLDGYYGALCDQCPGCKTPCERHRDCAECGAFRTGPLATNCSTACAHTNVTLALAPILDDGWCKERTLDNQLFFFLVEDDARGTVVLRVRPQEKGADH
Put plainly: Integrin α4β7—MAdCAM-1 competition assay (ELISA). It is filed as binding. Conditions: ratio a4b1 ELISA IC50 / a4b7 ELISA IC50. In a few lines:
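Competitive ELISA in which serially diluted compound was incubated with the receptor system for 2 h at room temperature to equilibrium. Wash buffer contained 1 mM MnCl2. Bound Fc-tagged partner was detected with anti-human IgG Fc-HRP and TMB.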
In general terms: ELISA stands for enzyme-linked immunosorbent assay.

On to `CC(C)C[C@@H]1NC(=O)[C@H](Cc2ccc(O)cc2)NC(=O)[C@@H]2CCCN2[C@H](C(=O)NC(C)(C)C)[C@H](C)NC(=O)[C@H]([C@@H](C)O)NC(=O)[C@H](CC(=O)O)NC1=O` [UM0131995-05], for which, in “Aqueous solubility assay”, the “Determined concentration Mean” value came to 898.5 µM, the “Determined concentration Rep 1” value was found to be 883.9 µM, the “Determined concentration Rep 2” value is 897.3 µM and the “Determined concentration Rep 3” value is 914.7 µM.
In the same order, the values of `CC(C)C[C@@H]1NC(=O)[C@@H](Cc2ccncc2)NC(=O)[C@@H]2CCCN2[C@H](C(=O)NC(C)(C)C)[C@H](C)NC(=O)[C@H]([C@@H](C)O)NC(=O)[C@H](CC(=O)O)NC1=O` [UM0134700-01] are 994.5 µM, 1044.8 µM, 933.2 µM and 950.6 µM.
Turning to `CC(C)C[C@@H]1NC(=O)CNC(=O)[C@H](Cc2ccc(O)cc2)NC(=O)[C@@H]2CCCN2[C@H](C(=O)NC(C)(C)C)[C@H](C)NC(=O)[C@H]([C@@H](C)O)NC(=O)[C@H](CC(=O)O)NC1=O` [UM0134677-01], in the data set “Aqueous solubility assay”, the “Determined concentration Mean” value stood at 224.6 µM, the “Determined concentration Rep 1” value was 225.4 µM, the “Determined concentration Rep 2” value came to 230.6 µM and the “Determined concentration Rep 3” value was found to be 217.8 µM.
Turning to `CC(C)C[C@@H]1NC(=O)[C@H](Cc2cscn2)NC(=O)[C@@H]2CCCN2[C@H](C(=O)NC(C)(C)C)[C@H](C)NC(=O)[C@H]([C@@H](C)O)NC(=O)[C@H](CC(=O)O)NC1=O` [UM0132370-01], in “Aqueous solubility assay”, the “Determined concentration Mean” value came to 183.2 µM, the “Determined concentration Rep 1” value came out at 187.0 µM, the “Determined concentration Rep 2” value stood at 182.4 µM and the “Determined concentration Rep 3” value amounted to 180.2 µM.
With `CSCC[C@@H]1NC(=O)[C@@H]2CCCN2[C@H](C(=O)NC(C)(C)C)[C@H](C)NC(=O)[C@H]([C@@H](C)O)NC(=O)[C@H](CC(=O)O)NC(=O)[C@H](CC(C)C)NC1=O` [UM0132374-01], in “Aqueous solubility assay”, the “Determined concentration Mean” value came to 183.1 µM, the “Determined concentration Rep 1” value amounted to 179.4 µM, the “Determined concentration Rep 2” value was 184.0 µM and the “Determined concentration Rep 3” value is 185.9 µM.
As for `C=CCOc1ccc(C[C@@H]2NC(=O)[C@@H]3CCCN3[C@H](C(=O)NC(C)(C)C)[C@H](C)NC(=O)[C@H]([C@@H](C)O)NC(=O)[C@H](CC(=O)O)NC(=O)[C@H](CC(C)C)NC2=O)cc1` [UM0132371-01], in the data set “Aqueous solubility assay”, the “Determined concentration Mean” value stood at 834.5 µM, the “Determined concentration Rep 1” value was 786.7 µM, the “Determined concentration Rep 2” value is 837.3 µM and the “Determined concentration Rep 3” value came out at 879.6 µM.
For `CC(C)C[C@@H]1NC(=O)[C@@H](Cc2ccc(O)cc2)NC(=O)[C@@H]2CCCN2[C@H](C(=O)NC(C)(C)C)[C@H](C)NC(=O)[C@H]([C@@H](C)O)NC(=O)[C@H](CC(=O)O)NC1=O` [UM0132375-02], in “Aqueous solubility assay”, the “Determined concentration Mean” value stood at 954.5 µM, the “Determined concentration Rep 1” value came out at 966.6 µM, the “Determined concentration Rep 2” value came out at 960.0 µM and the “Determined concentration Rep 3” value worked out at 936.8 µM.
For `CC(C)C[C@@H]1NC(=O)[C@H](CCCCN)NC(=O)[C@@H]2CCCN2[C@H](C(=O)NC(C)(C)C)[C@H](C)NC(=O)[C@H]([C@@H](C)O)NC(=O)[C@H](CC(=O)O)NC1=O` [UM0132376-01], in “Aqueous solubility assay”, the “Determined concentration Mean” value worked out at 962.9 µM, the “Determined concentration Rep 1” value amounted to 990.7 µM, the “Determined concentration Rep 2” value was 958.6 µM and the “Determined concentration Rep 3” value worked out at 939.5 µM.
For `CC(C)C[C@@H]1NC(=O)[C@H](Cc2ccc(O)cc2)NC(=O)[C@H](C)NC(=O)[C@@H]2CCCN2[C@H](C(=O)NC(C)(C)C)[C@H](C)NC(=O)[C@H]([C@@H](C)O)NC(=O)[C@H](CC(=O)O)NC1=O` [UM0134830-01], in that order: 1000.0 µM, 1012.0 µM, 1016.4 µM and 971.7 µM.
Turning to `CC(C)C[C@@H]1NC(=O)[C@@H]2CCCN2C(=O)[C@@H]2CCCN2[C@H](C(=O)NC(C)(C)C)[C@H](C)NC(=O)[C@H]([C@@H](C)O)NC(=O)[C@H](CC(=O)O)NC1=O` [UM0132366-01], in the data set “Aqueous solubility assay”, the “Determined concentration Mean” value amounted to 467.8 µM, the “Determined concentration Rep 1” value was found to be 474.2 µM, the “Determined concentration Rep 2” value amounted to 477.4 µM and the “Determined concentration Rep 3” value turned out to be 451.9 µM.
In the same order, the values of `CC(C)C[C@@H]1NC(=O)[C@H](CCCN)NC(=O)[C@@H]2CCCN2[C@H](C(=O)NC(C)(C)C)[C@H](C)NC(=O)[C@H]([C@@H](C)O)NC(=O)[C@H](CC(=O)O)NC1=O` [UM0132377-01] are 218.6 µM, 225.7 µM, 218.9 µM and 211.2 µM.
`Cc1cccc(C)c1-c1cccc(C[C@@H]2NC(=O)[C@@H]3CCCN3[C@H](C(=O)NC(C)(C)C)[C@H](C)NC(=O)[C@H]([C@@H](C)O)NC(=O)[C@H](CC(=O)O)NC(=O)[C@H](CC(C)C)NC(=O)C[C@H](CCCCN)NC2=O)c1` [Compound 265]: at integrin α4β7, the “Selectivity ELISA” value is 46.2.
Turning to `CC(C)C[C@@H]1NC(=O)C[C@H](CCCCN)NC(=O)[C@H](Cc2ccc(O)cc2)NC(=O)[C@@H]2CCCN2[C@H](C(=O)NC(C)(C)C)[C@H](C)NC(=O)[C@H]([C@@H](C)OCc2ccccc2)NC(=O)[C@H](CC(=O)O)NC1=O` [Compound 200], at integrin α4β7, the “Selectivity ELISA” value was determined as 2.6.
With `CC(C)C[C@@H]1NC(=O)[C@H]2C[C@@H](O)CN2C(=O)[C@H](Cc2ccc(O)cc2)NC(=O)[C@@H]2CCCN2[C@H](C(=O)NC(C)(C)C)[C@H](C)NC(=O)[C@H]([C@@H](C)O)NC(=O)[C@H](CC(=O)O)NC1=O` [Compound 141], the “Selectivity ELISA” value at integrin α4β7 came to 2.0.
On to `CC(C)C[C@@H]1NC(=O)c2ccc(Br)c(c2)CNC(=O)[C@H](Cc2ccc(O)cc2)NC(=O)[C@@H]2CCCN2[C@H](C(=O)NC(C)(C)C)[C@H](C)NC(=O)[C@H]([C@@H](C)O)NC(=O)[C@H](CC(=O)O)NC1=O` [Compound 336], for which the “Selectivity ELISA” value on integrin α4β7 turned out to be 5.6.
`Cc1cccc(C)c1-c1ccc(C[C@@H]2NC(=O)[C@@H]3CCCN3[C@H](C(=O)NC(C)(C)C)[C@H](C)NC(=O)[C@H]([C@@H](C)O)NC(=O)[C@H](CC(=O)O)NC(=O)[C@H](CC(C)C)NC(=O)C[C@H](CCCCN)NC2=O)cc1` [Compound 268]: the “Selectivity ELISA” value at integrin α4β7 is reported as 24.6.
Turning to `CC(C)C[C@@H]1NC(=O)CN(C)C(=O)[C@H](Cc2csc(-c3cccnc3)n2)NC(=O)[C@@H]2CCCN2[C@H](C(=O)NC(C)(C)C)[C@H](C)NC(=O)[C@H]([C@@H](C)O)NC(=O)[C@H](CC(=O)O)NC1=O` [Compound 181], the “Selectivity ELISA” value on integrin α4β7 is on record as 12.6.
As to `CC(C)C[C@@H]1NC(=O)[C@H](Cc2csc(-c3ccccn3)n2)NC(=O)[C@@H]2CCCN2[C@H](C(=O)NC(C)(C)C)[C@H](C)NC(=O)[C@H]([C@@H](C)O)NC(=O)[C@H](CC(=O)O)NC1=O` [Compound 95], at integrin α4β7, the “Selectivity ELISA” value is reported as 2.4.

(Values after patent US11072616B2, “Cyclic peptides targeting alpha-4-beta-7 integrin” (Zealand Pharma A/S, priority 2015, dated 2021).)
